Measured values taken from US8163745B2, “HIV inhibiting 5-(hydroxymethylene and aminomethylene) substituted pyrimidines” (Tibotec Pharmaceuticals Ltd., priority 2006, dated 2012).
Where two headings read alike, the source gives them in different places.

What was measured:
[1] = test system: wild type HIV strain IIIB; test: Cellular anti-HIV assay in MT4 LTR-EGFP cells (GFP fluorescence), strain IIIB; cytotoxicity in mock-infected MT4 CMV-EGFP cells for the selectivity index; type: cell-based, HIV-1; conditions: for EC50: read-out: IIIB (pEC50) (converted)
Description: (§1) The antiviral activity of the compound of the present invention has been evaluated in the presence of wild type HIV and HIV mutants bearing mutations at the reverse transcriptase gene. The activity of the compounds is evaluated using a cellular assay which was performed according to the following procedure.
(§2) The human T-cell line MT4 is engineered with Green Fluorescent Protein (GFP) and an HIV-specific promoter, HIV-1 long terminal repeat (LTR). This cell line is designated MT4 LTR-EGFP, and can be used for the in vitro evaluation of anti-HIV activity of investigational compounds. In HIV-1 infected cells, the Tat protein is produced which upregulates the LTR promotor and finally leads to stimulation of the GFP reporter production, allowing to measure ongoing HIV-infection fluorometrically.
Analogously, MT4 cells are engineered with GFP and the constitutional cytomegalovirus (CMV) promotor. This cell line is designated MT4 CMV-EGFP, and can be used for the in vitro evaluation of cytotoxicity of investigational compounds. In this cell line, GFP levels are comparably to those of infected MT4 LTR-EGFP cells. Cytotoxic investigational compounds reduce GFP levels of mock-infected MT4 CMV-EGFP cells.
(§3) Effective concentration values such as 50% effective concentration (EC50) can be determined and are usually expressed in μM. An EC50 value is defined as the concentration of test compound that reduces the fluorescence of HIV-infected cells by 50%. The 50% cytotoxic concentration (CC50 in μM) is defined as the concentration of test compound that reduces fluorescence of the mock-infected cells by 50%. The ratio of CC50 to EC50 is defined as the selectivity index (SI) and is an indication of the selectivity of the anti-HIV activity of the inhibitor. The ultimate monitoring of HIV-1 infection and cytotoxicity is done using a scanning microscope. Image analysis allows very sensitive detection of viral infection. Measurements are done before cell necrosis, which usually takes place about five days after infection, in particular measurements are performed three days after infection.
(§4) The columns IIIB, L100I, etc. in the table list the pEC50 values against various strains IIIB, L100I, etc.
Strain IIIB is wild type HIV strain.

[2] = test system: HIV strain MDR (mutations L100I, K103N, Y181C, E138G, V1791, L2214F, V278V/I and A327A/V in HIV reverse transcriptase); test: microbe, parasite or virus in culture; type: cell-based, HIV-1; conditions: MT4 LTR-EGFP cells, measured three days after infection; for EC50: Human immunodeficiency virus 1, 72 h, read-out: MDR (pEC50), MDR strain (converted); for MDR (pEC50): MDR strain
Description: as §1, §2, §3, §4
“MDR” refers to a strain that contains mutations L100I, K103N, Y181C, E138G, V1791, L2214F, V278V/I and A327A/V in HIV reverse transcriptase.

[3] = test system: HIV mutant strain K103N + Y181C; test: microbe, parasite or virus in culture; type: cell-based, HIV-1; conditions: MT4 LTR-EGFP cells, measured three days after infection; for EC50: Human immunodeficiency virus 1, 72 h, read-out: K103N + Y181C (pEC50), strain K103N + Y181C (converted); for K103N + Y181C (pEC50): strain K103N + Y181C
Description: as §1, §2, §3, §4

[4] = test system: HIV mutant strain L100I + K103N; test: microbe, parasite or virus in culture; type: cell-based, HIV-1; conditions: MT4 LTR-EGFP cells, measured three days after infection; for EC50: Human immunodeficiency virus 1, 72 h, read-out: L100I + K103N (pEC50), strain L100I + K103N (converted); for L100I + K103N (pEC50): strain L100I + K103N
Description: as §1, §2, §3, §4

[5] = test system: HIV mutant strain Y181C; test: microbe, parasite or virus in culture; type: cell-based, HIV-1; conditions: MT4 LTR-EGFP cells, measured three days after infection; for EC50: Human immunodeficiency virus 1, 72 h, read-out: Y181C (pEC50), strain Y181C (converted); for Y181C (pEC50): strain Y181C
Description: as §1, §2, §3, §4

[6] = Human immunodeficiency virus 1, IIIB, 72 h, wild type HIV strain IIIB, MT4 LTR-EGFP cells, measured three days after infection
[7] = wild type HIV strain IIIB, MT4 LTR-EGFP cells, measured three days after infection

Cc1cc(/C=C/C#N)cc(C)c1Nc1nc(Nc2ccc(C#N)cc2)ncc1C(O)c1ccccn1 (centres unmarked) [Compound 2]
EC50 ([1]; Human immunodeficiency virus 1, 72 h, wild type HIV strain IIIB, MT4 LTR-EGFP cells, measured three days after infection): 3.47 nM | EC50 [2]: 813 nM | EC50 [3]: 3.24 nM | EC50 [4]: 3.47 nM | EC50 [5]: 8.51 nM | melting point: 244 °C

Cc1cc(/C=C/C#N)cc(C)c1Nc1nc(Nc2ccc(C#N)cc2)ncc1C(O)c1cccnc1 (centres unmarked) [Compound 4]
EC50 [1, 6]: 1.78 nM | EC50 [2]: 355 nM | EC50 [3]: 5.75 nM | EC50 [4]: 3.47 nM | EC50 [5]: 5.37 nM

COc1ccccc1C(O)c1cnc(Nc2ccc(C#N)cc2)nc1Nc1c(C)cc(/C=C/C#N)cc1C (centres unmarked) [Compound 5]
EC50 [1, 6]: 4.07 nM | EC50 [2]: 646 nM | EC50 [3]: 18.6 nM | EC50 [4]: 8.51 nM | EC50 [5]: 8.51 nM

Cc1csc(CC(O)c2cnc(Nc3ccc(C#N)cc3)nc2Nc2c(C)cc(/C=C/C#N)cc2C)n1 (centres unmarked) [Compound 6]
EC50 [1, 6]: 3.72 nM | EC50 [2]: 2240 nM | EC50 [3]: 95.5 nM | EC50 [4]: 18.6 nM | EC50 [5]: 24.5 nM

Cc1cnc(C(O)c2cnc(Nc3ccc(C#N)cc3)nc2Nc2c(C)cc(/C=C/C#N)cc2C)s1 (centres unmarked) [Compound 7]
EC50 [1, 6]: 11.5 nM | EC50 [2]: 1620 nM | EC50 [3]: 47.9 nM | EC50 [4]: 14.8 nM | EC50 [5]: 21.4 nM

Cc1csc(C(O)c2cnc(Nc3ccc(C#N)cc3)nc2Nc2c(C)cc(/C=C/C#N)cc2C)n1 (centres unmarked) [Compound 8]
EC50 [1, 6]: 3.89 nM | EC50 [2]: 209 nM | EC50 [3]: 9.55 nM | EC50 [4]: 4.27 nM | EC50 [5]: 14.5 nM

Cc1cc(/C=C/C#N)cc(C)c1Nc1nc(Nc2ccc(C#N)cc2)ncc1C(O)C1CCCC1 (centres unmarked) [Compound 9]
EC50 [1, 6]: 17 nM | EC50 [2]: 6610 nM | EC50 [3]: 759 nM | EC50 [4]: 158 nM | EC50 [5]: 245 nM

Cc1cc(/C=C/C#N)cc(C)c1Nc1nc(Nc2ccc(C#N)cc2)ncc1C(O)c1cncs1 (centres unmarked) [Compound 10]
EC50 [1, 6]: 3.02 nM | EC50 [2]: 145 nM | EC50 [3]: 4.07 nM | EC50 [4]: 2.63 nM | EC50 [5]: 3.8 nM

Cc1cc(/C=C/C#N)cc(C)c1Nc1nc(Nc2ccc(C#N)cc2)ncc1C(O)c1nccn1C (centres unmarked) [Compound 11]
EC50 [1, 6]: 2.57 nM | EC50 [2]: 832 nM | EC50 [3]: 7.24 nM | EC50 [4]: 3.72 nM | EC50 [5]: 6.03 nM

C=CC(O)c1cnc(Nc2ccc(C#N)cc2)nc1Nc1c(C)cc(/C=C/C#N)cc1C (centres unmarked) [Compound 12]
IIIB (pEC50) [1, 7]: 8.91 | MDR (pEC50) [2]: 6.37 | K103N + Y181C (pEC50) [3]: 8.38 | L100I + K103N (pEC50) [4]: 8.86 | Y181C (pEC50) [5]: 8.44

Cc1cc(/C=C/C#N)cc(C)c1Nc1nc(Nc2ccc(C#N)cc2)ncc1C(O)C#Cc1cncn1C (centres unmarked) [Compound 13]
EC50 [1, 6]: 3.63 nM | EC50 [2]: 537 nM | EC50 [3]: 38.9 nM | EC50 [4]: 63.1 nM | EC50 [5]: 19.5 nM

Cc1cc(/C=C/C#N)cc(C)c1Nc1nc(Nc2ccc(C#N)cc2)ncc1C(O)c1nc2ccccc2s1 (centres unmarked) [Compound 14]
EC50 [1, 6]: 12.6 nM | EC50 [2]: 6310 nM | EC50 [3]: 100 nM | EC50 [4]: 70.8 nM | EC50 [5]: 75.9 nM

Cc1cc(/C=C/C#N)cc(C)c1Nc1nc(Nc2ccc(C#N)cc2)ncc1C(O)c1scnc1Br (centres unmarked) [Compound 15]
EC50 [1, 6]: 6.76 nM | EC50 [2]: 468 nM | EC50 [3]: 18.2 nM | EC50 [4]: 7.76 nM | EC50 [5]: 17.8 nM

Cc1cc(/C=C/C#N)cc(C)c1Nc1nc(Nc2ccc(C#N)cc2)ncc1C(O)c1cn2ccnc2s1 (centres unmarked) [Compound 16]
EC50 [1, 6]: 25.1 nM | EC50 [2]: 7240 nM | EC50 [3]: 95.5 nM | EC50 [4]: 63.1 nM | EC50 [5]: 89.1 nM

Cc1cc(/C=C/C#N)cc(C)c1Nc1nc(Nc2ccc(C#N)cc2)ncc1C(O)c1csc2nc(Cl)cn12 (centres unmarked) [Compound 18]
EC50 [1, 6]: 18.2 nM | EC50 [2]: 2190 nM | EC50 [3]: 107 nM | EC50 [4]: 30.9 nM | EC50 [5]: 79.4 nM

Cc1cc(/C=C/C#N)cc(C)c1Nc1nc(Nc2ccc(C#N)cc2)ncc1C(O)(c1nccs1)c1nccs1 [Compound 21]
EC50 [1, 6]: 18.2 nM | EC50 [2]: 3310 nM | EC50 [3]: 85.1 nM | EC50 [4]: 23.4 nM | EC50 [5]: 56.2 nM

CCC(O)(c1nccs1)c1cnc(Nc2ccc(C#N)cc2)nc1Nc1c(C)cc(/C=C/C#N)cc1C (centres unmarked) [Compound 22]
IIIB (pEC50) [1, 7]: 7.75 | MDR (pEC50) [2]: 5.66 | K103N + Y181C (pEC50) [3]: 7.03 | L100I + K103N (pEC50) [4]: 7.51 | Y181C (pEC50) [5]: 7.21

Cc1cc(/C=C/C#N)cc(C)c1Nc1nc(Nc2ccc(C#N)cc2)ncc1C(C)(O)c1nccs1 (centres unmarked) [Compound 25]
IIIB (pEC50) [1, 7]: 7.75 | MDR (pEC50) [2]: 6.40 | K103N + Y181C (pEC50) [3]: 7.62 | L100I + K103N (pEC50) [4]: 7.85 | Y181C (pEC50) [5]: 7.74

Cc1cc(/C=C/C#N)cc(C)c1Nc1nc(Nc2ccc(C#N)cc2)ncc1C(O)(c1nccs1)C(C)C (centres unmarked) [Compound 26]
IIIB (pEC50) [1, 7]: 7.00 | MDR (pEC50) [2]: 5.12 | K103N + Y181C (pEC50) [3]: 6.24 | L100I + K103N (pEC50) [4]: 6.33 | Y181C (pEC50) [5]: 6.66

C=CC(O)(c1nccs1)c1cnc(Nc2ccc(C#N)cc2)nc1Nc1c(C)cc(/C=C/C#N)cc1C (centres unmarked) [Compound 27]
IIIB (pEC50) [1]: 7.70 | MDR (pEC50) [2]: 6.27 | K103N + Y181C (pEC50) [3]: 7.54 | L100I + K103N (pEC50) [4]: 7.84 | Y181C (pEC50) [5]: 7.70
